Measured values as given in patent US20240131032A1, “AN ACTIVITY-GUIDED MAP OF ELECTROPHILE-CYSTEINE INTERACTIONS IN PRIMARY HUMAN IMMUNE CELLS” (The Scripps Research Institute, priority 2019, published 2024).

What was measured:
[1] = target: BIRC2 (Homo sapiens, UniProt Q13490); test: isoTOP-ABPP and TMT-ABPP cysteine engagement, BIRC2; format: binding; design: endogenous in cells; host or cells: primary human T cells
Experimental: (§1) Activated or expanded T cells were re-suspended in RPMI media supplemented with 10% FBS, L-glutamine (2 mM), penicillin (100 U/mL), and streptomycin (100 μg/mL) at 2×10^6 cells/mL. The compounds were added to cells as 1000×DMSO stocks and mixed well with the media by pipetting up and down after addition. The cells were kept at 37° C. in 5% CO2 containing incubators for 3 h (or otherwise specified times), then pelleted by centrifugation (524 g, 5 min, 4° C.), washed with cold PBS (10 mL) and transferred to Eppendorf tubes (1 mL PBS). The cells were pelleted again (524 g, 5 min, 4° C.), flash-frozen, and kept at −80° C. until further analysis.
(§2) Activated or expanded primary human T cells were re-suspended in RPMI (1×10^6 cells/mL) containing 10% fetal bovine serum (FBS), penicillin (100 U/mL), streptomycin ([…]), and L-glutamine (2 mM). […] The resulting proteomes were analyzed by competitive isotopic Tandem Orthogonal Proteolysis Activity-Based Protein Profiling (isoTOP-ABPP). […]
(§3) The heavy/light isoTOP-ABPP ratios (R values) for each unique peptide (DMSO/compound treated) were quantified with in-house CIMAGE software (Weerapana et al., 2010) using default parameters (3 MS1 acquisitions per peak and signal to noise threshold set to 2.5). Site-specific engagement of cysteine residues was assessed by blockade of IA-alkyne probe labeling. […]

[2] = target: T1, ERCC3 (Homo sapiens, UniProt P19447); test: isoTOP-ABPP and TMT-ABPP cysteine engagement, ERCC3; format: binding
T1 construct: endogenous in cells; host or cells: primary human T cells
T1 sequence (P19447 1-782): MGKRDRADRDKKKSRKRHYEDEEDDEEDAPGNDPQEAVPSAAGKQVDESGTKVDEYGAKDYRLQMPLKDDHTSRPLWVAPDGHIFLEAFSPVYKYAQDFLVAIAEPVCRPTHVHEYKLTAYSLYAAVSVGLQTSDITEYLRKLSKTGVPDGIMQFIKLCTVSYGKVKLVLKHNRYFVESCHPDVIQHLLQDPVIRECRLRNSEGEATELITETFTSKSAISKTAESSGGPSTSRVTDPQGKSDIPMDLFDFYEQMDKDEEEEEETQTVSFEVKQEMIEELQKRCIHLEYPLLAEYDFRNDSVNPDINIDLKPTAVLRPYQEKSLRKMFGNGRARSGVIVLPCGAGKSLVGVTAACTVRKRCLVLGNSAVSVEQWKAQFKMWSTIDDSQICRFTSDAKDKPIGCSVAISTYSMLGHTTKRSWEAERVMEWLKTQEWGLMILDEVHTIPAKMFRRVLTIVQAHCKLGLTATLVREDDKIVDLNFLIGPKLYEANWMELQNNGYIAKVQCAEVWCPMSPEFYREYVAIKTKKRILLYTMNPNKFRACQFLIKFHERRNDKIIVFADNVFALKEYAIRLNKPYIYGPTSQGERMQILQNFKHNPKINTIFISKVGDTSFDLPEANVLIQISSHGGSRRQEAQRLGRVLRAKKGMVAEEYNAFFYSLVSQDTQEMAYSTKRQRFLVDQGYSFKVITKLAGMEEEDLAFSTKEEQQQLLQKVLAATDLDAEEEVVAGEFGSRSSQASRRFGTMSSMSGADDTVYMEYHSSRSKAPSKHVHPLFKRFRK
Experimental: as §1
Activated or expanded primary human T cells were re-suspended in RPMI (1×10^6 cells/mL) containing 10% fetal bovine serum (FBS), penicillin (100 U/mL), streptomycin ([…]), and L-glutamine (2 mM). The cells were treated with DMSO or compounds for 3 h, pelleted (524 g, 5 min), washed with PBS, and lysed by sonication (2×8 pulses). Soluble and particulate proteomic fractions were separated by ultracentrifugation (100,000 g, 45 min), and protein concentration was normalized to 1.7 mg/mL using a standard DC protein assay (Bio-Rad). The resulting proteomes were analyzed by competitive isotopic Tandem Orthogonal Proteolysis Activity-Based Protein Profiling (isoTOP-ABPP).
Samples (500 μL, 1.7 mg/mL) were treated with iodoacetamide alkyne (IA-alkyne, 5 μL of 10 mM stock in DMSO, final concentration: 100 μM) for 1 h at ambient temperature. Modified proteins were then conjugated to isotopically labeled, TEV-cleavable biotin tags (TEV-tags) using copper-catalyzed azide-alkyne cycloaddition reaction (CuAAC). Reagents for the CuAAC reaction were pre-mixed prior to their addition to the proteome samples. […]
The heavy/light isoTOP-ABPP ratios (R values) for each unique peptide (DMSO/compound treated) were quantified with in-house CIMAGE software (Weerapana et al., 2010) using default parameters (3 MS1 acquisitions per peak and signal to noise threshold set to 2.5). Site-specific engagement of cysteine residues was assessed by blockade of IA-alkyne probe labeling. […] Ratios for unique peptide sequences were calculated for each experiment; overlapping peptides with the same modified cysteine (e.g., different charge states, elution times or tryptic termini) were grouped together and the median ratio was reported as the final ratio (R). […]

[3] = system: NFATc2; test: NFAT pathway activation in stimulated T cells (western blot of NFATc2); format: cell-based, human; conditions: 4 h
Experimental: FIG. 22A and FIG. 22B show the effects of active compounds on NFAT pathway activation. […] FIG. 22C and FIG. 22D show the effects of active compounds on MAPK pathway. […] All treatments were done for 24 h.

[4] = target: T2, TMEM173 (Homo sapiens, UniProt Q86WV6); test: isoTOP-ABPP and TMT-ABPP cysteine engagement, TMEM173; format: binding
T2 construct: endogenous in cells; host or cells: primary human T cells
T2 sequence (Q86WV6 whole entry H232R): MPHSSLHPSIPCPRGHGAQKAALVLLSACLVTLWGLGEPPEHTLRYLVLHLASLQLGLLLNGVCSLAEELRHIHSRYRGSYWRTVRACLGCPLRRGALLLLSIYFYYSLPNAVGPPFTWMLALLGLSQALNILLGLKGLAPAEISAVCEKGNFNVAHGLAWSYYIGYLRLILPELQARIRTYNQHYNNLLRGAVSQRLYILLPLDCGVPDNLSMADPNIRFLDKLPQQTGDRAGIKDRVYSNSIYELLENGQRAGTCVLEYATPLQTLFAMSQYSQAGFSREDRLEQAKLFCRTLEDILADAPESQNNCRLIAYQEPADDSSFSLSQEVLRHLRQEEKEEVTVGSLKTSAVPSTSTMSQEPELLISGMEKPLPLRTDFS
Experimental: as §1, §2, §3

BIRC2, sequence (Q13490 whole entry): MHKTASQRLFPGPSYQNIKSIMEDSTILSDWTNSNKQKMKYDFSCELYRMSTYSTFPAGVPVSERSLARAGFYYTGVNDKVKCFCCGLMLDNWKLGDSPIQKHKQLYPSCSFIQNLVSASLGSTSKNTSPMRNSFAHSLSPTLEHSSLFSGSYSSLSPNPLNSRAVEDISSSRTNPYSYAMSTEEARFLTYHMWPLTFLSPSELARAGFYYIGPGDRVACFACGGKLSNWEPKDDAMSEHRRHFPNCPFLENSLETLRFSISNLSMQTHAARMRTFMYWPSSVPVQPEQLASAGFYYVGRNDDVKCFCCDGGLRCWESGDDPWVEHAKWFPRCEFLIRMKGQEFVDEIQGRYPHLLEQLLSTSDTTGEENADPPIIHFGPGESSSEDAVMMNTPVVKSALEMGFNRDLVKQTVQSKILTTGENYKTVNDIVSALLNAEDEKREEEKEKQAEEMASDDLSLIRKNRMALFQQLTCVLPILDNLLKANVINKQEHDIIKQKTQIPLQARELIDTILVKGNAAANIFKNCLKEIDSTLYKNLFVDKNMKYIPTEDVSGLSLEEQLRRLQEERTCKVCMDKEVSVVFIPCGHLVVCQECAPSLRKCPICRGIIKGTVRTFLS

Structure (SMILES): O=C(CCl)N1CCN(S(=O)(=O)c2ccc(-c3ccncc3)cc2)CC1 [EV-3]
- engagement of C45 of BIRC2 [1]: engaged

Structure (SMILES): C=CC(=O)N(Cc1cccc(Cl)n1)c1ccc(C(=O)Nc2ccccc2)nc1 [BPK-25]
- engagement of C342 of ERCC3 [2]: alkylating C342
- NFATc2 expression [3]: reduced NFATc2 expression
- labeling of C91 of TMEM173 [4]: direct labeling of C91

Structure (SMILES): COC(=O)/C=C/C(=O)OC [DMF, reference compound]
- engagement of C45 of BIRC2 [1]: engaged

Structure (SMILES): C=CC(=O)N(Cc1cccc(Cl)c1Cl)c1ccc(Oc2ccccc2)c(C(F)(F)F)c1 [BPK-21]
- efficacy at ERCC3 C342, BPK-21 with respect to BPK-25 [2]: higher efficacy
- engagement of C342 of ERCC3 [2]: alkylating C342
- reductions in NFATc2 dephosphorylation (NFAT activation) [3]: did not appear to impact
- labeling of C91 of TMEM173 [4]: direct labeling of C91
